Reference: PubChem BioAssay AID2060360 (Molecular Pharmacology Branch, DTP, NCI, 2025)

Tested on: 282377-053-R-J1-PDC tumor spheroids, viability
Assay: Anticancer human tumor 282377-053-R-J1-PDC patient-derived colon adenocarcinoma cell line growth inhibition [TAK]
Conditions: spheroids with HUVEC and MSC; for IC50: curve of first compound; for viability, T/C: stronger effect = lower value
Excerpt: Combinatorial screen of targeted agents with TAK-243 and ipatasertib in multi-cell type tumor spheroids
A high-throughput screen of multi-cell type tumor spheroids was designed to identify active combinations of targeted small molecules and TAK-243 or ipatasertib. Complex spheroids include a stromal component modeled by human endothelial cells (HUVEC) and fibroblasts modeled by human mesenchymal stem cells (MSCs). The concentration ranges selected for each drug and investigational agent were based upon clinically achievable concentrations if the clinical Cmax of the agent was known.
Compounds. The drugs and investigational agents: TAK-243 (785004), ipatasertib (767898), everolimus (733504), selumetinib (741078), bortezomib (756655), trametinib (758246), ixazomib (758254), vemurafenib (761431), dabrafenib (764134), sapanisertib (764658), alpelisib (765974), and copanlisib (816437), were obtained from the National Cancer Institute (NCI) Developmental Therapeutics Program Chemical Repository. The FDA-approved anticancer drug set is available from the NCI Developmental Therapeutics Program. […] The stock solutions were prepared in dimethyl sulfoxide (DMSO, Sigma-Aldrich, St. Louis, MO, cat. D2650) at 800-fold the tested concentration and stored at -70 degrees C prior to their use. All drugs and investigational agents were tested over a range starting from a high concentration at or near the clinical Cmax and decreasing in half-log increments. If the clinical Cmax for an agent had not been determined, the highest concentration tested was 10 microM.
NCI60 Cell Culture. NCI60 cell lines were obtained from the NCI Developmental Therapeutics Program Tumor Repository. For each lot of cells, the Repository performed Applied Biosystems AmpFLSTR Identifiler testing with PCR amplification to confirm consistency with the published Identifier STR profile for each cell line. Cells were kept in continuous culture for no more than 20 passages. The optimal seeding densities for each of the cell lines at each time point assessed were determined prior to performing the concentration response studies. Briefly, the NCI60 human tumor lines were grown as monolayers in RPMI 1640 medium supplemented with 10% FBS and 2 mmol/L L-glutamine.
An additional 2 lines were from the NCI60 cell line panel including melanomas, MALME-3M and SK-MEL-2. Pooled donor human umbilical vein endothelial cells (HUVEC, Lonza, cat. CC-2519) and human mesenchymal stem cells (hMSC, Lonza, cat. PT-2501) were purchased from Lonza (Walkersville, MD).
PDMR cell lines were grown in complete medium (DC medium): Dulbecco's modified Eagle's medium (DMEM)/F12 supplemented with 5% fetal bovine serum (FBS), 2 mM L-glutamine, 100 U/mL penicillin and 100 µg/ml streptomycin, 0.4 µg/ml hydrocortisone, 10 ng/ml epidermal growth factor (EGF) recombinant human protein, 24 µg/mL adenine, and 0.1 mg/mL primocin. During culture from frozen stock vials, PDMR cells were cultured in the same medium containing 10 µM Y-27632 (see Table 3). The PDCs were cultured in complete DMEM/F12 media without 10 microM Y-27632 dihydrochloride for at least two passages prior to the screen. The pooled donor HUVEC and hMSC were cultured in endothelial cell growth medium 2 (PromoCell, Heidelberg, Germany, cat. C-22011) and mesenchymal stem cell growth medium 2 (PromoCell, cat. C-28009), respectively. For all experiments, HUVEC and hMSC were used at passages </=5.
For the pre-screen, cell seeding densities were determined from a titration spanning the range from 5,000 to 313 cells per well. The mct-spheroids including 60% malignant cells, 25% HUVEC and 15% MSC dispensed as a mixture into U-bottom Ultra-Low Attachment 384-well plates (Corning, NY)
High-throughput Drug Combination Screening.
Prior to their inoculation into 384-well plates, malignant cells, HUVEC, and hMSC were removed from T flasks using TrypLE express (Thermo Fisher Scientific, cat. 12605036) and harvested by centrifugation for 5 min at 233 x g. […]
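Note: spheroids exposed to drugs for seven days before readout.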

Question: For `Cn1cnc2c(F)c(Nc3ccc(Br)cc3Cl)c(C(=O)NOCCO)cc21` + CC(C)NCC(C(=O)N1CCN(c2ncnc3c2C(C)CC3O)CC1)c1ccc(Cl)cc1, which IC50 (second compound 0.3 µM) is on record?
Answer: 396 nM

Question: And the IC50 (second compound 0.949 µM)?
Answer: 190 nM

Question: And the IC50 (second compound 3 µM)?
Answer: 161 nM

Question: And the IC50 (second compound 9.49 µM)?
Answer: 191 nM

Question: And the IC50 (second compound 30 µM)?
Answer: 66 nM

Question: And the viability, T/C (second compound 0.3 µM, first compound 0.00949 µM)?
Answer: 81.5%

Question: And the viability, T/C (second compound 0.3 µM, first compound 0.03 µM)?
Answer: 74.4%

Question: What about the viability, T/C (second compound 0.3 µM, first compound 0.0949 µM) of the same molecule?
Answer: 63.6%

Question: And the viability, T/C (second compound 0.3 µM, first compound 0.3 µM)?
Answer: 55.6%

Question: What about the viability, T/C (second compound 0.3 µM, first compound 0.949 µM) of the same molecule?
Answer: 38.4%

Question: What about the viability, T/C (second compound 0.3 µM, first compound 3 µM) of the same molecule?
Answer: 17.4%

Question: And the viability, T/C (second compound 0.949 µM, first compound 0.00949 µM)?
Answer: 82%

Question: And the viability, T/C (second compound 0.949 µM, first compound 0.03 µM)?
Answer: 70.9%

Question: What about the viability, T/C (second compound 0.949 µM, first compound 0.0949 µM) of the same molecule?
Answer: 56.9%

Question: What about the viability, T/C (second compound 0.949 µM, first compound 0.3 µM) of the same molecule?
Answer: 45.6%

Question: What about the viability, T/C (second compound 0.949 µM, first compound 0.949 µM) of the same molecule?
Answer: 31.8%

Question: What about the viability, T/C (second compound 0.949 µM, first compound 3 µM) of the same molecule?
Answer: 18.9%

Question: And the viability, T/C (second compound 3 µM, first compound 0.00949 µM)?
Answer: 77.1%

Question: What about the viability, T/C (second compound 3 µM, first compound 0.03 µM) of the same molecule?
Answer: 70.5%

Question: What about the viability, T/C (second compound 3 µM, first compound 0.0949 µM) of the same molecule?
Answer: 54.8%

Question: And the viability, T/C (second compound 3 µM, first compound 0.3 µM)?
Answer: 42.1%

Question: And the viability, T/C (second compound 3 µM, first compound 0.949 µM)?
Answer: 31%

Question: And the viability, T/C (second compound 3 µM, first compound 3 µM)?
Answer: 18.4%

Question: And the viability, T/C (second compound 9.49 µM, first compound 0.00949 µM)?
Answer: 73.4%

Question: And the viability, T/C (second compound 9.49 µM, first compound 0.03 µM)?
Answer: 72.2%

Question: And the viability, T/C (second compound 9.49 µM, first compound 0.0949 µM)?
Answer: 57%

Question: And the viability, T/C (second compound 9.49 µM, first compound 0.3 µM)?
Answer: 44.3%

Question: And the viability, T/C (second compound 9.49 µM, first compound 0.949 µM)?
Answer: 30.1%

Question: What about the viability, T/C (second compound 9.49 µM, first compound 3 µM) of the same molecule?
Answer: 18.8%

Question: What about the viability, T/C (second compound 30 µM, first compound 0.00949 µM) of the same molecule?
Answer: 61.5%

Question: What about the viability, T/C (second compound 30 µM, first compound 0.03 µM) of the same molecule?
Answer: 59.8%

Question: What about the viability, T/C (second compound 30 µM, first compound 0.0949 µM) of the same molecule?
Answer: 45.2%

Question: And the viability, T/C (second compound 30 µM, first compound 0.3 µM)?
Answer: 34.2%

Question: And the viability, T/C (second compound 30 µM, first compound 0.949 µM)?
Answer: 26.4%

Question: What about the viability, T/C (second compound 30 µM, first compound 3 µM) of the same molecule?
Answer: 13.2%

Question: What does the source list for `COc1c(OCCCN2CCOCC2)ccc2c3n(c(=NC(=O)c4cnc(N)nc4)nc12)CCN3` + CC(C)NCC(C(=O)N1CCN(c2ncnc3c2C(C)CC3O)CC1)c1ccc(Cl)cc1?
Answer: IC50 (second compound 0.3 µM): > 1000 nM; IC50 (second compound 0.949 µM): 674 nM; IC50 (second compound 3 µM): 489 nM; IC50 (second compound 9.49 µM): 182 nM; IC50 (second compound 30 µM): 32.3 nM; viability, T/C (second compound 0.3 µM, first compound 0.00316 µM): 95%; viability, T/C (second compound 0.3 µM, first compound 0.01 µM): 96%; viability, T/C (second compound 0.3 µM, first compound 0.0316 µM): 91.8%; viability, T/C (second compound 0.3 µM, first compound 0.1 µM): 91.1%; viability, T/C (second compound 0.3 µM, first compound 0.316 µM): 87.9%; viability, T/C (second compound 0.3 µM, first compound 1 µM): 64.3%; viability, T/C (second compound 0.949 µM, first compound 0.00316 µM): 94.9%; viability, T/C (second compound 0.949 µM, first compound 0.01 µM): 87.7%; viability, T/C (second compound 0.949 µM, first compound 0.0316 µM): 87.6%; viability, T/C (second compound 0.949 µM, first compound 0.1 µM): 81.3%; viability, T/C (second compound 0.949 µM, first compound 0.316 µM): 82.7%; viability, T/C (second compound 0.949 µM, first compound 1 µM): 33.2%; viability, T/C (second compound 3 µM, first compound 0.00316 µM): 86.1%; viability, T/C (second compound 3 µM, first compound 0.01 µM): 88.3%; viability, T/C (second compound 3 µM, first compound 0.0316 µM): 80.5%; viability, T/C (second compound 3 µM, first compound 0.1 µM): 78.4%; viability, T/C (second compound 3 µM, first compound 0.316 µM): 73.4%; viability, T/C (second compound 3 µM, first compound 1 µM): 13.6%; viability, T/C (second compound 9.49 µM, first compound 0.00316 µM): 82.3%; viability, T/C (second compound 9.49 µM, first compound 0.01 µM): 79.1%; viability, T/C (second compound 9.49 µM, first compound 0.0316 µM): 73.2%; viability, T/C (second compound 9.49 µM, first compound 0.1 µM): 66.8%; viability, T/C (second compound 9.49 µM, first compound 0.316 µM): 35.4%; viability, T/C (second compound 9.49 µM, first compound 1 µM): 11.4%; viability, T/C (second compound 30 µM, first compound 0.00316 µM): 66.4%; viability, T/C (second compound 30 µM, first compound 0.01 µM): 65.8%; viability, T/C (second compound 30 µM, first compound 0.0316 µM): 48%; viability, T/C (second compound 30 µM, first compound 0.1 µM): 29.7%; viability, T/C (second compound 30 µM, first compound 0.316 µM): 8.22%; viability, T/C (second compound 30 µM, first compound 1 µM): 4.24%
